Tested on: oral glucose tolerance in rats
Experiment: Oral glucose tolerance test in fasted rats (blood glucose by glucose oxidase method)
Assay type: in vivo, Male, Alderley Park, Wistar rats
Conditions: rats fasted 24 hours, Glibenclamide 5 mg/kg p.o. at -2.0 h, Compound A 0.1 mg/kg p.o. at -0.5 h, M ± SEM, eight rats/group; for Glucose levels, time relative to oral glucose (minutes) 0: 0 min (before oral glucose load 1g/kg); for Glucose levels, time relative to oral glucose (minutes) 20: 20 min after oral glucose load 1g/kg; for Glucose levels, time relative to oral glucose (minutes) 60: 60 min after oral glucose load 1g/kg; for Glucose levels, time relative to oral glucose (minutes) 120: 120 min after oral glucose load 1g/kg
Description: Effects of (S)-4-[2-(2-hydroxy-3-phenoxypropylamino)ethoxy]-N-(2-methoxyethyl)phenoxyacetamide on glibenclamide induced improvements in oral glucose tolerance in rats Glibenclamide is a sulphonylurea commonly used for the treatment of non-insulin dependent diabetes. The effects of (S)-4-[2-(2-hydroxy-3-phenoxypropylamino)ethoxy]-N-(2-methoxyethyl) phenoxyacetamide (compound A) were assessed on glibenclamide induced improvements in oral glucose tolerance. Male, Alderley Park, Wistar rats (weight range 125-150 g) were caged in groups of four in a room with normal lighting, at a temperature of 22°C. The animals were allowed free access to water and chow during an acclimatisation period of five days. At the end of this period the rats were fasted for 24 hours. After fasting a group of 8 rats was anaesthetised and a cardiac blood sample taken. The remaining rats were dosed orally according to the schedule below: [table] Glibenclamide and Compound A were dissolved in an aqueous 0.025% solution of polysorbate. The dosage volume was 0.5 ml/100 g body weight. Thirty minutes after dosing according to the schedule above a further eight rats from each group were bled. The remaining rats were then given an oral glucose load (1g/kg) dosed as a 20% solution of D-glucose (0.5 ml/100 g). Groups of eight rats for each treatment were then anaesthetised and bled 20, 60 and 120 minutes after the glucose load. Glucose levels were assayed using a glucose oxidase method on a KDK glucose analyser (Clandon).

| Compound | Glucose levels, time relative to oral glucose (minutes) 0 | Glucose levels, time relative to oral glucose (minutes) 20 | Glucose levels, time relative to oral glucose (minutes) 60 | Glucose levels, time relative to oral glucose (minutes) 120 |
| --- | --- | --- | --- | --- |
| COCCNC(=O)COc1ccc(OCCNC[C@H](O)COc2ccccc2)cc1 [Compound A, (S)-4-[2-(2-hydroxy-3-phenoxypropylamino)ethoxy]-N-(2-methoxyethyl) phenoxyacetamide] | 2.77 ± 0.10 mmol | 6.16 ± 0.23 mmol | 5.37 ± 0.28 mmol | 4.99 ± 0.20 mmol |
| COc1ccc(Cl)cc1C(=O)NCCc1ccc(S(=O)(=O)NC(=O)NC2CCCCC2)cc1 [Glibenclamide] | 3.16 ± 0.13 mmol | 7.77 ± 0.45 mmol | 4.4 ± 0.38 mmol | 3.67 ± 0.27 mmol |
